Read-outs that look alike come from different tables or passages of the source.
Tests used:
DYRK1A [1] = tested on: DYRK1A; parameters: method as in PMID 21450467; details: cited from earlier work
CLK1 [2] = tested on: CLK1; parameters: method as in PMID 21450467; details: cited from earlier work
CLK1 [3] = tested on: CLK1; parameters: method as in PMID 28561591; details: cited from earlier work
DYRK1A [4] = tested on: DYRK1A; parameters: method as in PMID 28561591; details: cited from earlier work
CLK3 = CLK3 (Mus musculus, UniProt O35492); test: radiometric protein kinase assay
Sequence of CLK3 (O35492 whole entry): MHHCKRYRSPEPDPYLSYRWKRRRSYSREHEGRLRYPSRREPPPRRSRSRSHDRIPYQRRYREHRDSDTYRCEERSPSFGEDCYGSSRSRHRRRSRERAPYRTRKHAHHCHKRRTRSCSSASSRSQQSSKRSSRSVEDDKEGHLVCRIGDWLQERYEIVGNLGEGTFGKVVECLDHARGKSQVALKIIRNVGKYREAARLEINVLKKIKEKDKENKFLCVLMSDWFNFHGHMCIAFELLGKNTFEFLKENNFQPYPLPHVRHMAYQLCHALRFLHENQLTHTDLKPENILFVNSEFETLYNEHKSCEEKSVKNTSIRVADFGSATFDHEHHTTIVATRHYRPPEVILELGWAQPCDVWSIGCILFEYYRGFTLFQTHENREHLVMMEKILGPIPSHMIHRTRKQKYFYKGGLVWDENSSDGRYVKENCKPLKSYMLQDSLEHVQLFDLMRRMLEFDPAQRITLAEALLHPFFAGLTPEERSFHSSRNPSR
Description: Buffers. Buffer A: 10 mM MgCl2, 1 mM EGTA, 1 mM DTT, 25 mM Tris-HCl pH 7.5, 50 μg heparin/mL. Buffer C: 60 mM β-glycerophosphate, 15 mM p-nitrophenylphosphate, 25 mM MOPS (pH 7.2), 15 mM EGTA, 15 mM MgCl2, 1 mM DTT, 1 mM sodium vanadate, 1 mM phenylphosphate.
Kinase activities were assayed in buffer A or C at 30°C at a final ATP concentration of 15 μmol/L. Blank values were subtracted and activities were expressed in percent of the maximal activity, i.e. in the absence of inhibitors. Controls were performed with appropriate dilutions of DMSO.
Their kinase activity was assayed in buffer A, with 1 mg histone H1/mL, in the presence of 15 μmol/L [γ-33P] ATP (3,000 Ci/mmol; 10 mCi/mL) in a final volume of 30 μL. After 30 min incubation at 30°C, the reaction was stopped by harvesting onto P81 phosphocellulose supernatant (Whatman) using a FilterMate harvester (Packard) and washing in 1% phosphoric acid. Scintillation fluid was added and the radioactivity measured in a Packard counter.
All data points for construction of dose response curves were recorded in triplicate.

CK1δ/ε = test: radiometric protein kinase assay; format: biochemical, porcine; details: 15 μmol/L ATP; read-out: IC50 CK1
CLK1 [5] = biological target: CLK1 (Mus musculus, UniProt P22518); test: radiometric protein kinase assay
Sequence of CLK1 (Mus musculus, UniProt P22518) (P22518 whole entry): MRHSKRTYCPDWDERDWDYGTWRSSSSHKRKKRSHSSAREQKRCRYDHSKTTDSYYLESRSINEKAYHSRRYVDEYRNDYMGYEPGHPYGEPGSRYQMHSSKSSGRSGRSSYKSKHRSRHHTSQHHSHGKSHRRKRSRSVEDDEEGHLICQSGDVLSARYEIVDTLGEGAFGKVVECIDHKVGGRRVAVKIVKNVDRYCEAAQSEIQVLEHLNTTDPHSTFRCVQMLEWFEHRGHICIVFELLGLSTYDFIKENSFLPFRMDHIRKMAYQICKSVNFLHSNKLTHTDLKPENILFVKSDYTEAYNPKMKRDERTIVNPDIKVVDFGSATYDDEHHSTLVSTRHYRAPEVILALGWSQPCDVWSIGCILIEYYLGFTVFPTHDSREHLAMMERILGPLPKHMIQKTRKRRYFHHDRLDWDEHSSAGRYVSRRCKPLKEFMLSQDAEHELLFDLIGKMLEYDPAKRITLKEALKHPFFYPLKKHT

CDK1/cyclin B = test: radiometric protein kinase assay; format: biochemical, starfish; details: 15 μmol/L ATP
CLK2 = CLK2 (Mus musculus, UniProt O35491); test: radiometric protein kinase assay
Sequence of CLK2 (O35491 whole entry): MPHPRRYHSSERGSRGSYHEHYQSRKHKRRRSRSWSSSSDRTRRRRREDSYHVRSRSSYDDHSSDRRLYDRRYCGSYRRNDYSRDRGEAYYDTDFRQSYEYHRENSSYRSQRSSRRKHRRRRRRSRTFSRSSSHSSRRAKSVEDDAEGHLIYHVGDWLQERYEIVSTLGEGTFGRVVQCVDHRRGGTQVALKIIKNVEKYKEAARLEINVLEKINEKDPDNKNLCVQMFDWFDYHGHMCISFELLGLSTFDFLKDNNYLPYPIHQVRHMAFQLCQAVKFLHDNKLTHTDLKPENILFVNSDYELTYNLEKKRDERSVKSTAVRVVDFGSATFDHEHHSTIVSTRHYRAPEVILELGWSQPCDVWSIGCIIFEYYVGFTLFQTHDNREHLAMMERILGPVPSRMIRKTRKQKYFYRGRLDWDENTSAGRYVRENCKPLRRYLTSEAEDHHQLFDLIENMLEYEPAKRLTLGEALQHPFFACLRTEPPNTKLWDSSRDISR

DYRK1A [6] = biological target: DYRK1A (Homo sapiens, UniProt Q13627); test: radiometric protein kinase assay; format: biochemical; details: 15 μmol/L ATP; read-out: IC50 DYRK 1A
DYRK1B = DYRK1B (Homo sapiens, UniProt Q9Y463); test: radiometric protein kinase assay; format: biochemical; details: 15 μmol/L ATP; read-out: IC50 DYRK 1B
Sequence of DYRK1B (Q9Y463 whole entry): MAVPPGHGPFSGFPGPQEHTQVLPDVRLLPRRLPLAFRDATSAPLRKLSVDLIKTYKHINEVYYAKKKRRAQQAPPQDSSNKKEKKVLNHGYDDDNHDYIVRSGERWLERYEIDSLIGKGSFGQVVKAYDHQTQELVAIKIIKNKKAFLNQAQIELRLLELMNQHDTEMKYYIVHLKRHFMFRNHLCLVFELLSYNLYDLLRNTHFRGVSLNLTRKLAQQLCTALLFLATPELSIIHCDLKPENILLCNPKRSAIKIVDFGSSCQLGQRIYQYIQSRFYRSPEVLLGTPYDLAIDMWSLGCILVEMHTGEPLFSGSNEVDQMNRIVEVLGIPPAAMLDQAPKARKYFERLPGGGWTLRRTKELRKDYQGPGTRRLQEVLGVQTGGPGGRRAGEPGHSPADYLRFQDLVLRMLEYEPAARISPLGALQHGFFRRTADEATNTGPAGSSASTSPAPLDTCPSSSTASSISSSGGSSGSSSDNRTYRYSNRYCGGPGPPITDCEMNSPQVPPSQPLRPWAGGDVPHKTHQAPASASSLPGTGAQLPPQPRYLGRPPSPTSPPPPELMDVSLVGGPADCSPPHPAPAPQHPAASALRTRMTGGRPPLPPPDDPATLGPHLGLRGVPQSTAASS

DYRK3 = biological target: T1, DYRK3 (Homo sapiens, UniProt O43781); test: radiometric protein kinase assay; format: biochemical; details: 15 μmol/L ATP; read-out: IC50 DYRK 3
T1 sequence (O43781 1-588): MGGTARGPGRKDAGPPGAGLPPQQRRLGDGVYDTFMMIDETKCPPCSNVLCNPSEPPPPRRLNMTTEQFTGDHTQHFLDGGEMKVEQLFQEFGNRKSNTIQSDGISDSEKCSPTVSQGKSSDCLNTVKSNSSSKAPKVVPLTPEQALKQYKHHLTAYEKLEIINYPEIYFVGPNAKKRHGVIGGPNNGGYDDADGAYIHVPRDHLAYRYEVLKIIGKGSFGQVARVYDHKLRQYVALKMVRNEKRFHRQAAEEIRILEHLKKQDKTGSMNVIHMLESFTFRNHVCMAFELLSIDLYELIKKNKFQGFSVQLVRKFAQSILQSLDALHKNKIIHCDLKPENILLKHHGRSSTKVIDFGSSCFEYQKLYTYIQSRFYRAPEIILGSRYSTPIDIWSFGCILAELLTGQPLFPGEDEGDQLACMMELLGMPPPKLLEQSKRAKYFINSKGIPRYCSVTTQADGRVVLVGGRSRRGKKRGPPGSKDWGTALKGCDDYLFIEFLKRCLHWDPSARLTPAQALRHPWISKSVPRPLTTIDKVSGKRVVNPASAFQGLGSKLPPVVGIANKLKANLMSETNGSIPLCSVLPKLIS

GSK-3 = test: radiometric protein kinase assay; format: biochemical, porcine; details: 15 μmol/L ATP; read-out: IC50 GSK3
CLK4 = CLK4 (Mus musculus, UniProt O35493); test: radiometric protein kinase assay
Sequence of CLK4 (O35493 whole entry): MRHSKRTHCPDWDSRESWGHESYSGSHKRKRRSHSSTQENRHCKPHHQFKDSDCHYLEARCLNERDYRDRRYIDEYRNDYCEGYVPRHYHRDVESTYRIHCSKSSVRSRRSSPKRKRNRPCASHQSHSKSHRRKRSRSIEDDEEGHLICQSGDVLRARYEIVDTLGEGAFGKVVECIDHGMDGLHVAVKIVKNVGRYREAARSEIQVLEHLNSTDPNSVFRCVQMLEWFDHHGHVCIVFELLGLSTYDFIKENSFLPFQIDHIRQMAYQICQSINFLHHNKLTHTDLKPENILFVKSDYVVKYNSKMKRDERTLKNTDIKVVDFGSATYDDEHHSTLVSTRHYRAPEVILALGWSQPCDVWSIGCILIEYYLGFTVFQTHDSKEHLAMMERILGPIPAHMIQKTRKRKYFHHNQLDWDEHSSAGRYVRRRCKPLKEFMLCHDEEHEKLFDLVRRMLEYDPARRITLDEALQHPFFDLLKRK

CDK5/p25 = biological target: T2, CDK5/p25 (Homo sapiens, UniProt Q00535); test: radiometric protein kinase assay; format: biochemical; details: 15 μmol/L ATP
T2 construct: made in house
T2 sequence (Q00535 whole entry): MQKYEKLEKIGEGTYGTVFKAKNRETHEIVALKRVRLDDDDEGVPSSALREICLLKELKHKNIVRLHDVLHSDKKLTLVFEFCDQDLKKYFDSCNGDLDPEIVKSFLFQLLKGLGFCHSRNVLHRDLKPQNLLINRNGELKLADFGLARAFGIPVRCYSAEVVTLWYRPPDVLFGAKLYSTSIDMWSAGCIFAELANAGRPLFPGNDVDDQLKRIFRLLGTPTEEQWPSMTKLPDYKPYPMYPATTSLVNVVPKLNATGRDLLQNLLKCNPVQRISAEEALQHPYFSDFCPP
T2 sequence (Q15078 99-307 partner limits assumed): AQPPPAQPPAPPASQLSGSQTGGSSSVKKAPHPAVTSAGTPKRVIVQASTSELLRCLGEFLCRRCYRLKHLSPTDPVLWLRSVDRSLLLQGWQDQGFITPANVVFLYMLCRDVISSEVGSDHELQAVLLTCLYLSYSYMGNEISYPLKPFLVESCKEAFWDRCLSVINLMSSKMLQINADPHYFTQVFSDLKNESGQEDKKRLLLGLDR

DYRK2 = biological target: T3, DYRK2 (Homo sapiens, UniProt Q92630); test: radiometric protein kinase assay; format: biochemical; details: 15 μmol/L ATP; read-out: IC50 DYRK 2
T3 sequence (Q92630 1-601): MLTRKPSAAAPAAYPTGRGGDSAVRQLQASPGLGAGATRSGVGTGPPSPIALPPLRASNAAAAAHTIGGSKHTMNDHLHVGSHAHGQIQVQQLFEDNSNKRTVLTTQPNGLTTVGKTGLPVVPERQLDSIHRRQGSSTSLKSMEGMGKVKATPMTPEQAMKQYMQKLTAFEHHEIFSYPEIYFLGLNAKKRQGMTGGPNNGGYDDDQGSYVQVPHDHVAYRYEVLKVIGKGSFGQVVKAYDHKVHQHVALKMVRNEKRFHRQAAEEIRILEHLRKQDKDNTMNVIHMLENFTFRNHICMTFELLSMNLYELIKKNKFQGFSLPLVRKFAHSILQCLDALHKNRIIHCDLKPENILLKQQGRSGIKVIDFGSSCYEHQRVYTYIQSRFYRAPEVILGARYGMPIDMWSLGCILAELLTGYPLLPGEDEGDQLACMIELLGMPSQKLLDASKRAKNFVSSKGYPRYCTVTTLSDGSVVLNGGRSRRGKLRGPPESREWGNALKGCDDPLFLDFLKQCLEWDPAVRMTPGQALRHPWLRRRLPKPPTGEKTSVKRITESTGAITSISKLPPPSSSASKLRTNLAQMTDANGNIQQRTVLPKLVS

CDK9/cyclin T = CDK9/cyclin T (Homo sapiens, UniProt P50750); test: radiometric protein kinase assay
Sequence of CDK9/cyclin T (P50750 whole entry): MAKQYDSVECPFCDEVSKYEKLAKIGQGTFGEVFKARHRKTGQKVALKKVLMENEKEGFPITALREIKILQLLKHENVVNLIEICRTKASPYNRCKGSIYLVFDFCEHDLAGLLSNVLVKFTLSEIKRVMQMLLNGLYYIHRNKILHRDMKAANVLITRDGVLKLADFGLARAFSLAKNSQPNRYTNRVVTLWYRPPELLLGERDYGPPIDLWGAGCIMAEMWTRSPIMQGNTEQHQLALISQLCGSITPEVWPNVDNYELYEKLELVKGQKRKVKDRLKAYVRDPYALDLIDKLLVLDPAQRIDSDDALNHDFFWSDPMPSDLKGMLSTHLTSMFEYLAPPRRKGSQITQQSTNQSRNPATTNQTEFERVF
Sequence of CDK9/cyclin T (O60563 whole entry partner): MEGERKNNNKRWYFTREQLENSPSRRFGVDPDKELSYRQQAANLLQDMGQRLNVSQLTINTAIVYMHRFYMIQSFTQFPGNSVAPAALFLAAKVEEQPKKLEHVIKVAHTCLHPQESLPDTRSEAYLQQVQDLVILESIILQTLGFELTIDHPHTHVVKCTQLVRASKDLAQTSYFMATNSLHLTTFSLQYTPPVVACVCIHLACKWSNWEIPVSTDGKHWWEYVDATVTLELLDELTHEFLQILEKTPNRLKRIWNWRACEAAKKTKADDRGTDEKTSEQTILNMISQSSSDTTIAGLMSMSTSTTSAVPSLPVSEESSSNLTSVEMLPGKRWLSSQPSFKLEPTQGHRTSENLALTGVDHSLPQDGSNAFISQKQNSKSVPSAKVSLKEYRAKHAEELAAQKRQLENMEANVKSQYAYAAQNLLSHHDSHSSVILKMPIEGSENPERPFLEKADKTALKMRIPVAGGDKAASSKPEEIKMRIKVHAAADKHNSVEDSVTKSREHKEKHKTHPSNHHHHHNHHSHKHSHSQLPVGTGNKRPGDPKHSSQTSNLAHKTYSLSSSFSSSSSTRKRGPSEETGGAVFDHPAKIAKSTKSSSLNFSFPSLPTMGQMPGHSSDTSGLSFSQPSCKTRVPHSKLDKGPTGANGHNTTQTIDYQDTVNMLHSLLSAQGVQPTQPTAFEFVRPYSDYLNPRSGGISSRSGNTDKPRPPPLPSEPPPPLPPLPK

CDK2/cyclin A = biological target: T4, CDK2/cyclin A (Homo sapiens, UniProt P24941); test: radiometric protein kinase assay; format: biochemical; details: 15 μmol/L ATP; read-out: IC50 CDK2/cyclinA
T4 construct: made in house

DYRK1A [7] = tested on: DYRK1A; parameters: method as in PMID 28555643; details: 1 μM; cited from earlier work
CLK1 [8] = tested on: CLK1; parameters: method as in PMID 28555643; details: 1 μM; cited from earlier work
CLK1 [9] = details: cited from earlier work
HCT116 = details: colorectal cancer cell line; cited from earlier work
DYRK1A [10] = details: cited from earlier work

Row | SMILES | IC50 (CLK3) [µM] | IC50 (CK1δ/ε) [µM] | IC50 (CLK1 [5]) [µM] | IC50 (CDK1/cyclin B) [µM] | IC50 (CLK2) [µM] | IC50 (DYRK1A [6]) [µM] | IC50 (DYRK1B) [µM] | IC50 (DYRK3) [µM] | IC50 (GSK-3) [µM] | IC50 (CLK4) [µM] | IC50 (CDK5/p25) [µM] | IC50 (DYRK2) [µM] | IC50 (CDK9/cyclin T) [µM] | IC50 (CDK2/cyclin A) [µM] | melting point [°C] | also measured
1 | Cc1nc(CNc2ncnc3ccc(-c4ccc5c(c4)OCO5)cc23)cs1 [NCGC00185963] | – | – | – | – | – | – | – | – | – | – | – | – | – | – | – | IC50 (DYRK1A [1]): 0.206 µM; IC50 (CLK1 [2]): 0.096 µM
2 | COc1ccc2sc(C(=O)N(C)Cc3cccc(F)c3)cc2c1 [compound 4] | – | – | – | – | – | – | – | – | – | – | – | – | – | – | – | IC50 (CLK1 [3]): 0.007 µM; IC50 (DYRK1A [4]): 0.34 µM
3 | O=C1NCc2c(-c3ccccc3F)cc3c(-c4ccccc4)c[nH]c3c21 [17b, 5-(2-Fluorophenyl)-3-phenyl-6,7-dihydropyrrolo[3,4-g]indol-8(1H)-one] | > 10 | > 10 | 5.8 | > 10 | 4.1 | > 10 | > 10 | > 10 | > 10 | 0.91 | > 10 | > 10 | > 10 | > 10 | 136 to 139 | –
4 | c1cc(-c2ccc3[nH]ncc3c2)ccn1 [TG693] | – | – | – | – | – | – | – | – | – | – | – | – | – | – | – | inhibition of DYRK1A activity (DYRK1A [7]): 84%; inhibition of CLK1 activity (CLK1 [8]): 93%
5 | COc1cccc(-c2c[nH]c3c4c(ccc23)CNC4=O)c1 [8f, 3-(3-Methoxyphenyl)-6,7-dihydropyrrolo[3,4-g]indol-8(1H)-one] | 2.8 | > 10 | 0.11 | > 10 | 0.32 | 3.8 | 1.9 | 5.4 | > 10 | 0.11 | > 10 | 2.1 | > 10 | > 10 | 207 to 208 | –
6 | CN1CCN(C(=O)C(C)(C)c2ccc(C(=O)Nc3cn4cc(-c5ccncc5)ccc4n3)cc2)CC1 [T3] | – | – | – | – | – | – | – | – | – | – | – | – | – | – | – | IC50 (CLK1 [9]): 0.00067 µM; GI50 (HCT116): 0.13 µM; IC50 (DYRK1A [10]): 0.26 µM

Source: paper PMC5933782, “Molecular structures of cdc2-like kinases in complex with a new inhibitor chemotype” (PLoS ONE, 2018)
